This note sets out measurements from ChEMBL document CHEMBL6134859, “Unlocking the antiviral arsenal: Structure-guided optimization of small-molecule inhibitors against RSV and hCoV-229E” (Eur J Med Chem, 2025).

In brackets after ≈: the same amount, converted by molar mass.

This data set in a line: Kinetic solubility of the compound in 1%DMSO/PBS measured after 5 mins. The data set is classed as physicochemical. The conditions noted are these: read-out: Kinetic_solubility.
In the case of `COc1ccc(C(C)=O)cc1COc1ncnc2c(-c3ccncc3)cccc12`, the solubility kinetic at 5 min was 32 µM (≈ 12.3 µg/mL). The figure for `COc1ccc(C(C)=O)cc1COc1ncnc2cccc(Cl)c12` is 54 µM (≈ 18.5 µg/mL). The figure for `COc1ccc(C(C)=O)cc1CNc1ncnc2c(Cl)cc(Cl)cc12` is more than 100 µM; for `COc1ccc(C(C)=O)cc1COc1ncnc2c(C)cccc12` it is 57 µM (≈ 18.4 µg/mL); for `Clc1cc(Cl)c2ncnc(OCc3ccc(Br)cc3)c2c1` it is 12 µM (≈ 4.61 µg/mL).

Regarding `COC(=O)c1ccccc1COc1ncnc2c(Cl)cc(Cl)cc12`, the solubility kinetic at 5 min was found to be 22 µM (≈ 7.99 µg/mL). The figure for `CCc1ccc(OC)c(COc2ncnc3c(Cl)cc(Cl)cc23)c1` is 34 µM (≈ 12.4 µg/mL). For `COc1ccc(C(C)=O)cc1C(=O)Nc1ncnc2c(Cl)cc(Cl)cc12`, the solubility kinetic at 5 min was more than 100 µM. The figure for `COc1ccc(C(C)=O)cc1COc1ncnc2c(F)cccc12` is more than 100 µM; for `COc1ccc(C(C)=O)cc1CSc1ncnc2c(Cl)cc(Cl)cc12` it is 17 µM (≈ 6.69 µg/mL); for `Clc1cc(Cl)c2ncnc(OCc3cccc4c3OCO4)c2c1` it is 21 µM (≈ 7.33 µg/mL). The same measure for `O=C(O)c1cccc(COc2ncnc3c(Cl)cc(Cl)cc23)c1`: more than 100 µM. The same measure for `COc1ccc(C(C)=O)cc1COc1ncnc2c(Cl)ccc(Cl)c12`: 37 µM (≈ 14 µg/mL); for `COc1cccc(COc2ncnc3c(Cl)cc(Cl)cc23)c1`: 22 µM (≈ 7.37 µg/mL). `COc1ccc(C(C)=O)cc1COc1ncnc2c(S(C)(=O)=O)cccc12`: the solubility kinetic at 5 min is more than 100 µM. Turning to `COc1ccc(C(C)=O)cc1COc1ncnc2c(Br)cccc12`, the solubility kinetic at 5 min is 41 µM (≈ 15.9 µg/mL).

`COc1ccc(C(C)=O)cc1COc1ncnc2c(OCc3cc(C(C)=O)ccc3OC)cccc12`: the solubility kinetic at 5 min was 53 µM (≈ 25.8 µg/mL). The figure for `Clc1cc(Cl)c2ncnc(OCc3ccccc3-c3ccccc3)c2c1` is 16 µM (≈ 6.1 µg/mL); for `COc1ccc(C(C)=O)cc1COc1ncnc2ccc(Cl)cc12` it is 60 µM (≈ 20.6 µg/mL); for `COc1ccc(C(C)=O)cc1COc1ncnc2c(C#N)cccc12` it is more than 100 µM.

Regarding `Clc1cc(Cl)c2ncnc(OCc3ccccc3Br)c2c1`, the solubility kinetic at 5 min is 20 µM (≈ 7.68 µg/mL). The same measure for `COC(=O)c1cccc2c(OCc3cc(C(C)=O)ccc3OC)ncnc12`: more than 100 µM; for `COc1ccc(C(C)=O)cc1COc1ncnc2cc(Cl)ccc12`: 26 µM (≈ 8.91 µg/mL). `Clc1cc(Cl)c2ncnc(OCc3ccccc3-c3cccnc3)c2c1`: the solubility kinetic at 5 min is 60 µM (≈ 22.9 µg/mL). With `O=C(O)c1ccccc1COc1ncnc2c(Cl)cc(Cl)cc12`, the solubility kinetic at 5 min was more than 100 µM.

Consider `COc1ccc(C(C)=O)cc1COc1ncnc2c(-c3ccccc3)cccc12`, for which the solubility kinetic at 5 min is 35 µM (≈ 13.5 µg/mL). The figure for `CC(=O)c1cccc(COc2ncnc3c(Cl)cc(Cl)cc23)c1` is 46 µM (≈ 16 µg/mL). The same measure for `COc1ccc(C(C)=O)cc1COc1ncnc2c(Cl)cc(C)cc12`: 66 µM (≈ 23.5 µg/mL).

With `O=C(O)c1ccc(COc2ncnc3c(Cl)cc(Cl)cc23)cc1`, the solubility kinetic at 5 min was more than 100 µM. Consider `COc1ccc(C(C)=O)cc1COc1ncnc2c(Cl)cc(Cl)cc12`, for which the solubility kinetic at 5 min came to 62 µM (≈ 23.4 µg/mL). The same measure for `COCCOc1ccccc1COc1ncnc2c(Cl)cc(Cl)cc12`: 42 µM (≈ 15.9 µg/mL); for `COc1ccc(C(C)=O)cc1COc1ncnc2c(C)cc(C)cc12`: more than 100 µM; for `Cc1ccc(COc2ncnc3c(Cl)cc(Cl)cc23)cc1`: 12 µM (≈ 3.83 µg/mL). The figure for `COc1ccc(C(C)=O)cc1COc1ncnc2c(C)cc(Cl)cc12` is 50 µM (≈ 17.8 µg/mL); for `Clc1ccc(COc2ncnc3c(Cl)cc(Cl)cc23)cc1` it is 18 µM (≈ 6.11 µg/mL). Turning to `CCc1ccccc1COc1ncnc2c(Cl)cc(Cl)cc12`, the solubility kinetic at 5 min amounted to 28 µM (≈ 9.33 µg/mL). The figure for `COc1ccc(C(C)=O)cc1COc1ncnc2c(C3CC3)cccc12` is 27 µM (≈ 9.41 µg/mL); for `COc1cccc(OC)c1COc1ncnc2c(Cl)cc(Cl)cc12` it is 21 µM (≈ 7.67 µg/mL); for `COc1cc(COc2ncnc3c(Cl)cc(Cl)cc23)cc(C(C)=O)c1` it is 21 µM (≈ 7.92 µg/mL). Regarding `COc1ccc(C(C)=O)cc1COc1ncnc2c(N3CCOCC3)cccc12`, the solubility kinetic at 5 min is more than 100 µM. As to `COc1ccc(COc2ncnc3c(Cl)cc(Cl)cc23)cc1C(C)=O`, the solubility kinetic at 5 min came to 39 µM (≈ 14.7 µg/mL).

On to `COc1ccc(C(C)=O)cc1COc1ncnc2cc(Cl)cc(Cl)c12`, for which the solubility kinetic at 5 min stood at 41 µM (≈ 15.5 µg/mL). The figure for `COc1ccc(C(C)=O)cc1COc1ncnc2c(O)cccc12` is 55 µM (≈ 17.8 µg/mL). The figure for `Fc1ccc(COc2ncnc3c(Cl)cc(Cl)cc23)cc1` is 22 µM (≈ 7.11 µg/mL).

For `COc1ccc(C(C)=O)cc1COc1ncnc2c(C(F)(F)F)cccc12`, the solubility kinetic at 5 min turned out to be 33 µM (≈ 12.4 µg/mL). As for `COc1cccc(C(C)=O)c1COc1ncnc2c(Cl)cc(Cl)cc12`, the solubility kinetic at 5 min was found to be 44 µM (≈ 16.6 µg/mL). Take `COc1ccc(COc2ncnc3c(Cl)cc(Cl)cc23)cc1`: the solubility kinetic at 5 min came to 44 µM (≈ 14.7 µg/mL).

`COc1cc(C(C)=O)ccc1COc1ncnc2c(Cl)cc(Cl)cc12`: the solubility kinetic at 5 min turned out to be 26 µM (≈ 9.81 µg/mL). As for `N#Cc1ccc(COc2ncnc3c(Cl)cc(Cl)cc23)cc1`, the solubility kinetic at 5 min came to 25 µM (≈ 8.25 µg/mL). The figure for `CC(=O)c1ccc(-c2cccnc2)c(COc2ncnc3c(Cl)cc(Cl)cc23)c1` is more than 100 µM; for `COc1ccc(C(C)=O)cc1COc1ncnc2c(Cl)cccc12` it is 58 µM (≈ 19.9 µg/mL); for `COc1ccc(C(C)=O)cc1COc1ncnc2c(OC)cccc12` it is more than 100 µM.

On to `Fc1ccccc1COc1ncnc2c(Cl)cc(Cl)cc12`, for which the solubility kinetic at 5 min came to 26 µM (≈ 8.4 µg/mL). The figure for `Clc1cc(Cl)c2ncnc(OCc3ccccc3)c2c1` is 25 µM (≈ 7.63 µg/mL); for `COC(=O)c1ccc(COc2ncnc3c(Cl)cc(Cl)cc23)cc1` it is 25 µM (≈ 9.08 µg/mL). The figure for `COc1c(COc2ncnc3c(Cl)cc(Cl)cc23)cccc1C(C)=O` is 57 µM (≈ 21.5 µg/mL); for `COc1ccccc1COc1ncnc2c(Cl)cc(Cl)cc12` it is 32 µM (≈ 10.7 µg/mL); for `CCc1ccc(C(C)=O)cc1COc1ncnc2c(Cl)cc(Cl)cc12` it is 21 µM (≈ 7.88 µg/mL). Turning to `FC(F)(F)c1ccc(COc2ncnc3c(Cl)cc(Cl)cc23)cc1`, the solubility kinetic at 5 min was 18 µM (≈ 6.72 µg/mL). The figure for `COc1ccccc1CSc1ncnc2c(Cl)cc(Cl)cc12` is 24 µM (≈ 8.43 µg/mL); for `CC(=O)c1ccccc1COc1ncnc2c(Cl)cc(Cl)cc12` it is 43 µM (≈ 14.9 µg/mL).
